In patent US6924302B2, “Substituted triazole diamine derivatives as kinase inhibitors” (Ortho McNeil Pharmaceutical, Inc., priority 2000, dated 2005) one finds IC50 data, which are given here for 6 molecules.

The target in assay [1] is T1, CDK1:Cyclin-B (Homo sapiens, UniProt P06493).
T1 construct: purchased New England Biolabs 6020; host or cells: insect cells
Put plainly: CDK1 Screening Assay. The format is biochemical. Particulars: read-out: CDK1 IC50. The method in brief: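 Human CDK1:cyclin-B (30 ng/well) with biotinylated histone-H1 peptide and ^33P-γ-ATP, 1 h at 30° C, 1% DMSO, on streptavidin FlashPlate; incorporation read by scintillation.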

For assay [2], the target named is Insulin Receptor Kinase (Homo sapiens, UniProt P06213). Put plainly: Kinase Selectivity Assay Insulin Receptor Kinase. It is filed as biochemical. The following applies: Kinase Selectivity, Tables 2a-2k; read-out: Insulin R Kinase IC50. The protocol:
(§1) Assays to test compound inhibition of other kinases were preformed using methods that measure the amount of phosphorylation of a biotinylated peptide substrate. Biotinylated peptide substrates were selected from the literature as appropriate for the enzyme being evaluated. […] Assay conditions vary slightly for each protein kinase, for example, insulin receptor kinase requires 10 mM MnCl2 for activity and Calmodulin-dependent protein kinase requires calmodulin and 10 mM CaCl2. These assay conditions are known in the art. The reaction mixture was dispensed into the wells of a streptavidin coated Flashplate and 1 μl drug stock in 100% DMSO was added to a 100 μl reaction volume resulting in a final concentration of 1% DMSO on the reaction. Enzyme was diluted in 50 mM Tris-HCl pH=8.0, 0.1% BSA and add to each well. The reaction was incubated for one hour at 30° C. in the presence of compound. After one hour the reaction mix was aspirated from the plate and the plate was washed with PBS containing 100 mM EDTA. The plate was read on a scintillation counter to determine ^33P-γ-ATP incorporated into the immobilized peptide. Test compounds were assayed in duplicate at 8 concentrations [100 uM, 10 uM, 1 uM, 100 nM, 10 nM, 1 nM, 100 pM, 10 pM]. A maximum and minimum signal for the assay was determined on each plate. The IC50 was calculated from the dose response curve of the percent inhibition of the maximum signal in the assay according to the formula [max signal—background/test compound signal—background (100)=% inhibition] by graphing the percent inhibition against the log concentration of test compound. Known inhibitor compounds appropriate for the kinase being assayed were also included on each plate.
(§2) CDK2 in complex with cyclin A is commercially available (Upstate Biotech, Lake Placid, N.Y.). The CDK4 complex was composed of a mouse CDK4 protein and a mouse Cyclin D1 protein (The mouse CDK4 protein was genetically fused to an N-terminal Flag-epitope tag and the mouse Cyclin D1 protein was fused with an N-terminal AU-1 epitope tag. The genes encoding these proteins were transferred to commercially available baculoviral vectors. The recombinant CDK4/D1 complex was then made by co-infecting commercially available insect cells with viruses carrying these two constructs). […] ERK-1 protein (Discontinued from Calbiochem). EGFR (epidermal growth factor receptor) is purified from human A431 cell membranes (Sigma, St. Louis, Mo., Cat.# E3641).

The target in assay [3] is T2, Protein Kinase A (Bos taurus, UniProt P00517).
T2 construct: purified from bovine heart; purchased Upstate Biotech 14-114; host or cells: bovine heart
In words: Kinase Selectivity Assay Protein Kinase A. It is filed as biochemical, bovine. Particulars: Kinase Selectivity, Tables 2a-2k; read-out: PKA IC50. The protocol: as §1, §2

Assay [4] concerns the target T3, Casein Kinase 1 (CK1 delta isoform) (Rattus norvegicus, UniProt Q06486).
T3 construct: a truncation at amino acid 318 of the C-terminal portion of the rat CK1 delta isoform; purchased New England Biolabs 6030; host or cells: E. coli
T3 sequence (Q06486 1-317): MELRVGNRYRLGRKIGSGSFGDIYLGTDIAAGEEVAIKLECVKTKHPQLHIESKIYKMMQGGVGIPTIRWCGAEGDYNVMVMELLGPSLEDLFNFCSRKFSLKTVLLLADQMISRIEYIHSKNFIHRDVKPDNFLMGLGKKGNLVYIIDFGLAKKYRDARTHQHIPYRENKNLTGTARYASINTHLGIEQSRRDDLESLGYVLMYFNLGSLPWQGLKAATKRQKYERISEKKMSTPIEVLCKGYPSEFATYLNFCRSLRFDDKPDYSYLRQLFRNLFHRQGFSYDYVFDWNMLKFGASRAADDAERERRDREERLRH
Put plainly: Kinase Selectivity Assay Casein Kinase 1. It is filed as biochemical. The following applies: Tables 2a-2k, read-out: Caseine Kinase 1 IC50. The method, then:
as §1, §2

For assay [5], the target named is T4, Casein Kinase 2 (alpha and beta subunits) (Homo sapiens, UniProt P68400).
T4 construct: purchased New England Biolabs 6010; host or cells: E. coli
In words: Kinase Selectivity Assay Casein Kinase 2. The following applies: Kinase Selectivity, Tables 2a-2k; read-out: Caseine Kinase 2 IC50. The format is biochemical. The method, then: as §1, §2

Assay [6] has as its target T5, Calmodulin Kinase (calmodulin-dependent protein kinase 2) (Rattus norvegicus, UniProt P11275).
T5 construct: a truncated version of the alpha subunit of the rat protein; purchased New England Biolabs 6060; host or cells: insect cells
Put plainly: Kinase Selectivity Assay Calmodulin Kinase. Particulars: Kinase Selectivity, Tables 2a-2k; read-out: Calmodulin Kinase 2 IC50. It is filed as biochemical. The method, then: as §1, §2

Assay [7] concerns the target T6, Glycogen Synthase Kinase-3 (beta isoform) (Oryctolagus cuniculus, UniProt G1T8E2).
T6 construct: purchased New England Biolabs 6040; host or cells: E. coli
In words: Kinase Selectivity Assay Glycogen Synthase Kinase-3. The format is biochemical, rabbit. Particulars: Kinase Selectivity, Tables 2a-2k; read-out: GSK-3 IC50. The protocol: as §1, §2

For assay [8], the target named is T7, MAP Kinase (ERK-2 isoform) (Rattus norvegicus, UniProt P63086).
T7 construct: polyhistidine (N); host or cells: E. coli
Put plainly: Kinase Selectivity Assay MAP Kinase (ERK-2). It is filed as biochemical. Particulars: Kinase Selectivity, Tables 2a-2k; read-out: ERK 2 IC50. The protocol:
as §1, §2

In assay [9] the target is T8, PDGF-R (platelet derived growth factor receptor) beta subunit kinase domain (Homo sapiens, UniProt P09619).
T8 construct: nucleotides 1874-3507 of the human PDGF-R beta subunit kinase domain; polyhistidine (N)
In words: Kinase Selectivity Assay PDGF-R. The format is biochemical. Particulars: Kinase Selectivity, Tables 2a-2k; read-out: PDGF-R kinase IC50. The method, then: as §1, §2

Assay [10] concerns the target T9, HER2 (human epidermal growth factor receptor-2) (Homo sapiens, UniProt P04626).
T9 construct: begins at amino acid 676 followed by the remainder of the HER2 cytoplasmic domain; polyhistidine (N)
In words: Kinase Selectivity Assay HER2. It is filed as biochemical. In short, it runs like this:
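Radiometric Flashplate format: ^33P-γ-ATP transfer to immobilized biotinylated peptide, 1 h, 30° C, 1% DMSO final, enzyme in 50 mM Tris-HCl pH=8.0 + 0.1% BSA. Duplicate 8-point dilution, 100 uM down to 10 pM. IC50 from % inhibition of plate max signal versus log conc.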

For assay [11], the target named is FGF-R2 (Homo sapiens, UniProt P21802). In words: Kinase Selectivity Assay FGF-R2. It is filed as biochemical. The following applies: Tables 2a-2k. The method, then:
as §1

Assay [12] has as its target T10, CDK2 in complex with cyclin A (Homo sapiens, UniProt P24941).
T10 construct: purchased Upstate Biotech
In words: Kinase Selectivity Assay CDK2. It is filed as biochemical. The following applies: Table 1. The method, then: as §1, §2

Assay [13] has as its system HeLa cervical adenocarcinoma. Put plainly: Inhibition of Cell Proliferation (14C-thymidine incorporation), HeLa. The format is cell-based. The following applies: Homo sapiens, HeLa cell line. The protocol:
(§3) The ability of a test compound to inhibit the proliferation of cell growth was determined by measuring incorporation of ^14C-labelled thymidine into newly synthesized DNA within the cells. This method was used on cell lines derived from carcinomas originating from several tissues such as HeLa cervical adenocarcinoma (American Type Culture Collection (ATCC), Virginia, Cat. #CCL-2), A375 malignant melanoma (ATCC CRL-1619), SK-OV-3 ovarian adenocarcinoma (ATCC HTB-77) HCT-116 colon carcinoma (CCL-247), PC-3 prostate adenocarcinoma (ATCC CRL-1435), and MDA-MB-231 (Xenogen Corp.) In this way the effect of a compound on cell growth of cells with many different phenotypes can be determined. Cells were trypsinized and counted and 3000-8000 cells were added to each well of a 96-well CytoStar tissue culture treated scintillating microplate (Amersham #RPNQ0160) in complete medium in a volume of 100 μl. Cells were incubated for 24 hours in complete medium at 37° C. in an atmosphere containing 5% CO2. Next, 1 μl of test compound in 100% DMSO was added to the wells of the plate. DMSO only was added to control wells. Cells were incubated for 24 more hours in complete medium at 37° C. in an atmosphere containing 5% CO2. Methyl ^14C-thymidine 56 mCi/mmol (NEN #NEC568 or Amersham #CFA532) was diluted in complete medium and 0.2 uCi/well was added to each well of the CytoStar plate in a volume of 20 μl. The plate was incubated for 24 hours at 37° C. plus 5% CO2 in drug plus ^14C-thymidine. The contents of the plate were discarded into a ^14C radioactive waste container by inverting the plate and the plate was washed twice with 200 μl PBS. 200 μl of PBS is added to each well. The top of the plate was sealed with a transparent plate sealer and a white plate backing sealer (Packard #6005199) was applied to the bottom of the plate. The degree of methyl ^14C-thymidine incorporation was quantified on a Packard Top Count.
(In general: Uptake of a labelled nucleoside into DNA is a usual measure of proliferation.)

Assay [14] has as its system A375 malignant melanoma. In words: Inhibition of Cell Proliferation (14C-thymidine incorporation), A375. It is filed as cell-based. Particulars: Homo sapiens, A-375, A375 cell line. The method, then: as §3
In assay [15] the test system is HCT-116 colon carcinoma. In words: Inhibition of Cell Proliferation (14C-thymidine incorporation), HCT-116. It is filed as cell-based. The following applies: Homo sapiens, HCT-116 cell line. The method, then:
as §3

Where two headings read alike, the source gives them in different places.

Usually IC50 stands for the concentration that inhibits the measured activity by half.

T8 sequence (P09619 564-1106): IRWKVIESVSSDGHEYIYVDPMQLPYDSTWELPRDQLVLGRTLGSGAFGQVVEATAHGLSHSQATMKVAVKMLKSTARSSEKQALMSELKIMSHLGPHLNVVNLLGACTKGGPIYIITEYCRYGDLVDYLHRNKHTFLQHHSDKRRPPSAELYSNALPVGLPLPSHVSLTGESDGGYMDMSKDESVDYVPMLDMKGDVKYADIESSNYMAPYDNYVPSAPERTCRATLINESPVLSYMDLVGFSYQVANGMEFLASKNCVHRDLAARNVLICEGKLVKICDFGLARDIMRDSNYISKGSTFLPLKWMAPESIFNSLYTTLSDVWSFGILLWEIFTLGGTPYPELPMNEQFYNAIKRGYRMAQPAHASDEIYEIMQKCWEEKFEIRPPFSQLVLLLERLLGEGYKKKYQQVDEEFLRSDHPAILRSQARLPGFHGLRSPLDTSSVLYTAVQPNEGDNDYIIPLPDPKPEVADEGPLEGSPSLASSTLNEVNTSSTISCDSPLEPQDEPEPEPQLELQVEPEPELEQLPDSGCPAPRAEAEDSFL
Insulin Receptor Kinase, sequence (P06213 980-1352): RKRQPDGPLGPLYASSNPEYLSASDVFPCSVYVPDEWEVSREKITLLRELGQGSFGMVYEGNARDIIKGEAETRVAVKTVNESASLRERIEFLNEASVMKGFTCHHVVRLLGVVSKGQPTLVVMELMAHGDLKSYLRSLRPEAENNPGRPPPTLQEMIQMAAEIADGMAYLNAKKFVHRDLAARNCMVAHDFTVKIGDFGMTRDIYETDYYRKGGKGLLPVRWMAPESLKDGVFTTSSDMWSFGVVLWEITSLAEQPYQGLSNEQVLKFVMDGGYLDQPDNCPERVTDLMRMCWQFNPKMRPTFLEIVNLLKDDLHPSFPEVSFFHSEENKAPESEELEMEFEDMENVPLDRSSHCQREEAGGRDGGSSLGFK
T7 sequence (P63086 whole entry, canonical isoform): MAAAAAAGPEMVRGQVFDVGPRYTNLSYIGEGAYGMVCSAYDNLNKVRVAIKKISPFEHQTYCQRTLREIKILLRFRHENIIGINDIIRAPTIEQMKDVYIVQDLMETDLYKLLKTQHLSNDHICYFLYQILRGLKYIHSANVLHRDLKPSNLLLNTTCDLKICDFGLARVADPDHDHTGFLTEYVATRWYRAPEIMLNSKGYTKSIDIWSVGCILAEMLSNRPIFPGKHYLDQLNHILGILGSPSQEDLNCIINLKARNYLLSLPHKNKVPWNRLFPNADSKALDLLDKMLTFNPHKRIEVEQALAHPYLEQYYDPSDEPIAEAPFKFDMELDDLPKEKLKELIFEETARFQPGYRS
FGF-R2, sequence (P21802 22-821, species assumed): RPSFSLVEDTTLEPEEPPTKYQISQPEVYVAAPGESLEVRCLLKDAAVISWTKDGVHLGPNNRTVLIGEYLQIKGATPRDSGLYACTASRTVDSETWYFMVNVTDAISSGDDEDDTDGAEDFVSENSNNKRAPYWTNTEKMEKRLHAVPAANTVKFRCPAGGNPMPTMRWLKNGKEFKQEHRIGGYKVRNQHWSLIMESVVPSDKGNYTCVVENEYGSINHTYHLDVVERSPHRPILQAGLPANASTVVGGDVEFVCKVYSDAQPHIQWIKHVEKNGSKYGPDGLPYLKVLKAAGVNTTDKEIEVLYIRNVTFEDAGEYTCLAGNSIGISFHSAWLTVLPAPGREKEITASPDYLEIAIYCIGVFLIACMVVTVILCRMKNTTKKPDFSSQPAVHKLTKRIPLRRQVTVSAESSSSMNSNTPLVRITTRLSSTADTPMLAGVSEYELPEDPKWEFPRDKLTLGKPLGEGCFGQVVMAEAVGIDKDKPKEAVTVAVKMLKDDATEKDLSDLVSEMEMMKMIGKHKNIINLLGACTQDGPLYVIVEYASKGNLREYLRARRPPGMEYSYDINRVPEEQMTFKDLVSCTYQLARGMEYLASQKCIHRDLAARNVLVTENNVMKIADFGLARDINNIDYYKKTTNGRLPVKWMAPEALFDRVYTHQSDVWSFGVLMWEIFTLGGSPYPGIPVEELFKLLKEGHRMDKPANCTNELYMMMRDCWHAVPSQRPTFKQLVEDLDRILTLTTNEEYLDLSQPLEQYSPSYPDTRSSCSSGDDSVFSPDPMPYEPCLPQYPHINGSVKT
T4 sequence (P68400 whole entry): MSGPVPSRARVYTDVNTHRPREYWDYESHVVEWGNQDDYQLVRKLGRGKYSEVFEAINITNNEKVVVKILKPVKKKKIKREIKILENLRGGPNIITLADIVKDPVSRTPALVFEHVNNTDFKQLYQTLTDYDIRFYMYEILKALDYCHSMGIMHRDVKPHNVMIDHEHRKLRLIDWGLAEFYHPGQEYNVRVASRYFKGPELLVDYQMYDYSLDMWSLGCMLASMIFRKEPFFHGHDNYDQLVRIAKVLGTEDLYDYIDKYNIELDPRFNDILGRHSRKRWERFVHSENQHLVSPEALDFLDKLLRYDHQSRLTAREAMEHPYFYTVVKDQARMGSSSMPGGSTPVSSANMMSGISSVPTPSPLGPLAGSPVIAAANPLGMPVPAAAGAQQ
T4 sequence (P67870 whole entry partner): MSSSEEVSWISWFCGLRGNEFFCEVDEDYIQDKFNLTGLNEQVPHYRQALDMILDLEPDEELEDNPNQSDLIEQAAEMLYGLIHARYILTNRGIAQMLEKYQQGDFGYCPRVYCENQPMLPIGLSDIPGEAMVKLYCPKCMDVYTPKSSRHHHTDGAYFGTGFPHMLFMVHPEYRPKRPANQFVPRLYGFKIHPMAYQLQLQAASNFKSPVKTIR
T6 sequence (G1T8E2 1-432): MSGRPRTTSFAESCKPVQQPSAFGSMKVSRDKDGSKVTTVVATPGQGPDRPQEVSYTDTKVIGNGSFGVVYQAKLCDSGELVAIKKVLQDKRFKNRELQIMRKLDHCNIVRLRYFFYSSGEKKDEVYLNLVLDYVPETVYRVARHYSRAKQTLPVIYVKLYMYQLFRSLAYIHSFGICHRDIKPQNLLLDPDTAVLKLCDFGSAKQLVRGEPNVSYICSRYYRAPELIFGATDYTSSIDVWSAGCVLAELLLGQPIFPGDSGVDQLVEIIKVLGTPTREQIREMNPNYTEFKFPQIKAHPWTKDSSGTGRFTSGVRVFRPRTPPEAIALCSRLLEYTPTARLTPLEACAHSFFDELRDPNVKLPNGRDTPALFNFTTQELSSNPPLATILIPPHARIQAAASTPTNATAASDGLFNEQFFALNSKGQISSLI
T9 sequence (P04626 676-1255 limits assumed): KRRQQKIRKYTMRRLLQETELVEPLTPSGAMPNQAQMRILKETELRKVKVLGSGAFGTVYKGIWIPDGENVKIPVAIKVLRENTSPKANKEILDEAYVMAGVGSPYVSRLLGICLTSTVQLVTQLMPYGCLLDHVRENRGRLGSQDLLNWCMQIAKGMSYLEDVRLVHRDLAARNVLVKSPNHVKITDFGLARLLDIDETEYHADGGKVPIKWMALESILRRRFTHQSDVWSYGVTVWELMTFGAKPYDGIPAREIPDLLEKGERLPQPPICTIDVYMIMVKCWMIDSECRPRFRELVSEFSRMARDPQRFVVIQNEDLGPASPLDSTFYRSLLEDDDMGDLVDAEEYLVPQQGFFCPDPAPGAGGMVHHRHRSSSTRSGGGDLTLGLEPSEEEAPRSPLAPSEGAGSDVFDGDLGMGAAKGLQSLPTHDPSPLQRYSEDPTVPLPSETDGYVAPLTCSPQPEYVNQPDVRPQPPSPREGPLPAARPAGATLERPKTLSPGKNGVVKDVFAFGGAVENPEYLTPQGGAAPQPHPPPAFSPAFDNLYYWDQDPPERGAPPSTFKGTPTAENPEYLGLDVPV
T1 sequence (P06493 whole entry): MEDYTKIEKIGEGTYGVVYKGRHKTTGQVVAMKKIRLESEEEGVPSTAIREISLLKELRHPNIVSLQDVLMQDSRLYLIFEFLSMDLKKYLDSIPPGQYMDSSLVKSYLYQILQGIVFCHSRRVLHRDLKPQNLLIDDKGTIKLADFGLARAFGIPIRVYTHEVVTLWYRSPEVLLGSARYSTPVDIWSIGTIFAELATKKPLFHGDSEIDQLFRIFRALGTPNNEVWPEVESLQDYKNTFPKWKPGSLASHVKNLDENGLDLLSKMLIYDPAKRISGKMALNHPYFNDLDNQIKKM
T1 sequence (P14635 whole entry partner): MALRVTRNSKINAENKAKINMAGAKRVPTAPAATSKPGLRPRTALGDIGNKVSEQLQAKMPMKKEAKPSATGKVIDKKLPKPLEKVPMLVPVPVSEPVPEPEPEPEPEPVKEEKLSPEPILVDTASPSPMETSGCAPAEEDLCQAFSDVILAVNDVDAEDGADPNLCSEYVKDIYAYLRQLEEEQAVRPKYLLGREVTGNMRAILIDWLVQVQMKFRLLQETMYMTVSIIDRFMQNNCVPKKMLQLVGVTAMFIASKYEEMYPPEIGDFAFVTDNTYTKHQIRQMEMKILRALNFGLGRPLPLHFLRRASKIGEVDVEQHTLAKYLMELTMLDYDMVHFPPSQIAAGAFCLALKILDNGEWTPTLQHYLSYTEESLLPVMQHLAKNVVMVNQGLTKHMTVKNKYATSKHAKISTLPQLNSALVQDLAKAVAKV

For the molecule `Nc1ccc(F)c(C(=O)n2nc(Nc3ccc(S(N)(=O)=O)cc3)nc2N)c1F` [Cpd 55, 4-[[5-amino-1-(3-amino-2,6-difluorobenzoyl)-1H-1,2,4-triazol-3-yl]amino]-benzenesulfonamide], the IC50 is 20 nM in assay [1] (Kinase Selectivity, Tables 2a-2k); 22 nM in assay [1] (Table 1); more than 100000 nM in assay [2]; more than 100000 nM in assay [3]; 9600 nM in assay [4]; more than 100000 nM in assay [5]. Further, the IC50 in assay [6] is more than 100000 nM; in [7] it was 40 nM; in [8], 12900 nM; in [9], 16200 nM; in assay [10] (Kinase Selectivity, Tables 2a-2k, read-out: HER2 Kinase IC50), 2190 nM; in assay [10] (Table 1, read-out: HER2 IC50) it was 2190 nM. The molecule further returned an IC50 in [11] of 478 nM.

As to `Cc1ccc(F)c(C(=O)n2nc(Nc3ccc(S(=O)(=O)NCCN(C)C)cc3)nc2N)c1F` [Cpd 105], the half-inhibitory concentration (IC50) in assay [12] was 2 nM; in assay [2], 9850 nM; in assay [3] it was more than 100000 nM; in [4], 4490 nM; in assay [5], more than 100000 nM; in assay [6] it was more than 100000 nM. Besides, the IC50 in assay [7] amounted to 82 nM; in [8], 18200 nM; in [9], 2200 nM; in assay [13], 626 nM; in assay [14] it was 652 nM; in assay [15], 320 nM. Inhibition in [11] was half-maximal at 142 nM (IC50).

As to `Cc1cc(C)c(C(=O)n2nc(Nc3ccc(S(=O)(=O)NCCN(C)C)cc3)nc2N)s1` [Cpd 107], the IC50 in assay [12] is 2 nM; in assay [2], 311 nM; in assay [3] it was more than 100000 nM; in assay [4], 412 nM; in [5], more than 10000 nM; in [6], 3430 nM. Moreover, the half-inhibitory concentration (IC50) in [7] is 15 nM; in assay [8], more than 10000 nM; in assay [9], 143 nM; in assay [13] it was 177 nM; in [14], 113 nM; in assay [15] it was 95 nM. For the same molecule, in assay [11], the IC50 was determined as 235 nM.

Regarding `Cc1ccc(F)c(C(=O)n2nc(Nc3ccc(N4CCNC4=O)cc3)nc2N)c1F` [Cpd 114, 1-[4-[[5-amino-1-(2,6-difluoro-3-methylbenzoyl)-1H-1,2,4-triazol-3-yl]amino]phenyl]-2-imidazolidinone], the IC50 in [2] is more than 100000 nM; in [3], more than 100000 nM; in [4] it was 2000 nM; in assay [5], more than 100000 nM; in assay [6], more than 100000 nM; in assay [7], 431 nM. Further, the IC50 worked out at 15800 nM in assay [8]; 13800 nM in [9]; 2530 nM in assay [13]; 1690 nM in assay [14]; 1380 nM in [15].

Turning to `Nc1nc(Nc2ccc(N3CCNC3=O)cc2)nn1C(=O)c1c(F)cccc1F` [Cpd 115, 1-[4-[[5-amino-1-(2,6-difluorobenzoyl)-1H-1,2,4-triazol-3-yl]amino]phenyl]-2-imidazolidinone], the IC50 in assay [2] is more than 10000 nM; in assay [3] it was more than 100000 nM; in assay [4], 9980 nM; in assay [5], more than 100000 nM; in assay [6], more than 100000 nM; in assay [7] it was 391 nM. In addition, the IC50 in assay [8] is more than 10000 nM; in [9] it was more than 10000 nM; in [13], 676 nM; in [14], 529 nM; in assay [15] it was 486 nM.

Take `Cc1ccsc1C(=O)n1nc(Nc2ccc(S(=O)(=O)Nc3ccccn3)cc2)nc1N` [Cpd 121]: the IC50 in [12] was 3 nM; in [2] it was more than 100000 nM; in assay [3] it was more than 100000 nM; in assay [4], more than 10000 nM; in assay [5], more than 100000 nM; in [6] it was more than 100000 nM. The IC50 was 29 nM in [7]; more than 100000 nM in assay [8]; 394 nM in assay [9]; 310 nM in [13]; 215 nM in [14]; 608 nM in [15].
